Like-named read-outs stand apart in the source and are kept apart here.

By Emax is commonly meant the size of the effect at its maximum, as opposed to the concentration needed.

The target of test [1] is T1, human NOP receptor (Homo sapiens, UniProt P41146).
T1 construct: expressed in transfected cells; host or cells: CHO cells stably coexpressing the receptor and chimeric Gαqi5
The test is described as follows: Calcium mobilization, NOP receptor. Type of test: cell-based. The conditions noted are these: for NOP pEC50 (CL95%): CHO cells coexpressing human NOP and Gαqi5, Fluo-4 AM, 37 °C, mean of at least three experiments in duplicate, CL95% in brackets; for NOP Emax ± S.E.M.: mean ± SEM of at least three experiments in duplicate. In a few lines: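 CHO cells stably co-expressing the receptor and chimeric Gαqi5 were loaded with 3 μM Fluo-4 AM with probenecid for 30 min at 37 °C. Fluorescence was read on compound addition at 37 °C as maximal change over baseline.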
In general terms: Calcium assays in cells follow changes in intracellular calcium, usually with a dye or a luminescent sensor.

Test [2] concerns the target T1, human NOP receptor. The experiment in a line: Dynamic mass redistribution (DMR), NOP receptor. The class given is cell-based. The method, then: CHO cells stably expressing the human NOP and mu receptors were kindly provided by D.G. Lambert (University of Leicester, UK). Cells were cultured in DMEM/F-12 medium supplemented with 10% FBS, 100 U/mL penicillin, 100 μg/mL streptomycin, and 2 mmol/L L-glutamine. The medium was supplemented with 400 μg/mL G418 to maintain expression. Cells were cultured at 37 °C in 5% CO2 humidified air. For DMR measurements, the label-free EnSight Multimode Plate Reader (Perkin Elmer, MA, US) was used. Cells were seeded 15,000 cells/well in a volume of 30 μL onto fibronectin-coated 384-well DMR microplates and cultured for 20 h to obtain confluent monolayers. Cells were starved in the assay buffer (HBSS with 20 mM HEPES, 0.01% BSA fraction V) for 90 min before the test. Serial dilutions were made in the assay buffer. After reading the baseline, compounds were added in a volume of 10 μL; then, DMR changes were recorded for 60 min. Responses were described as picometer (pm) shifts over time (sec) following subtraction of values from vehicle-treated wells. Maximum picometer (pm) modification (peak) was used to generate concentration response curves. […]
The pharmacological terminology adopted in this paper is consistent with IUPHAR recommendations.[59] All data are expressed as the mean ± standard error of the mean (SEM) of at least three experiments performed in duplicate. […]

Test [3] addresses T2, human mu receptor (Homo sapiens, UniProt P35372).
T2 construct: expressed in transfected cells; host or cells: CHO cells stably coexpressing the receptor and chimeric Gαqi5
The experiment in a line: Dynamic mass redistribution (DMR), mu receptor. Type of test: cell-based. The conditions noted are these: DMR, maximum picometer (pm) modification (peak); mean ± SEM of at least three experiments in duplicate; SEM. The method, then: CHO cells stably expressing the human NOP and mu receptors were kindly provided by D.G. Lambert (University of Leicester, UK). Cells were cultured in DMEM/F-12 medium supplemented with 10% FBS, 100 U/mL penicillin, 100 μg/mL streptomycin, and 2 mmol/L L-glutamine. The medium was supplemented with 400 μg/mL G418 to maintain expression. Cells were cultured at 37 °C in 5% CO2 humidified air. For DMR measurements, the label-free EnSight Multimode Plate Reader (Perkin Elmer, MA, US) was used. Cells were seeded 15,000 cells/well in a volume of 30 μL onto fibronectin-coated 384-well DMR microplates and cultured for 20 h to obtain confluent monolayers. Cells were starved in the assay buffer (HBSS with 20 mM HEPES, 0.01% BSA fraction V) for 90 min before the test. Serial dilutions were made in the assay buffer. After reading the baseline, compounds were added in a volume of 10 μL; then, DMR changes were recorded for 60 min. Responses were described as picometer (pm) shifts over time (sec) following subtraction of values from vehicle-treated wells. Maximum picometer (pm) modification (peak) was used to generate concentration response curves. All the experiments were carried out at 37 °C.
The pharmacological terminology adopted in this paper is consistent with IUPHAR recommendations.[59] All data are expressed as the mean ± standard error of the mean (SEM) of at least three experiments performed in duplicate. […] Concentration-response curves to agonists were fitted to the classical four-parameter logistic nonlinear regression model:
Effect = Baseline + (Emax – Baseline)/(1 + 10^(LogEC50 – Log[compound]) × Hillslope). Curve fitting was performed using PRISM 6.0 (GraphPad Software Inc., San Diego).

Test [4] concerns the target T2, human mu receptor. The test is described as follows: Calcium mobilization, mu opioid receptor. Type of test: cell-based. Particulars: percent over the baseline fluorescence, mean ± SEM of at least three experiments in duplicate, SEM.
Method: CHO cells stably coexpressing the human NOP or kappa or the mu receptor and the C-terminally modified Gαqi5 and CHO cells coexpressing the delta receptor and the GαqG66Di5 protein were generated and cultured as described previously.[45],[46] Cells were maintained in Dulbecco’s modified Eagle’s medium/nutrient mixture F-12 (DEMEM/F-12) supplemented with 10% FBS, 100 U/mL penicillin and 100 μg/mL streptomycin, 100 μg/mL hygromicin B, and 200 μg/mL G418 and cultured at 37 °C in 5% CO2 humidified air. Cells were seeded at a density of 50,000 cells/well into 96-well black, clear-bottom plates. The following day, the cells were incubated with Hanks’ balanced salt solution (HBSS) supplemented with 2.5 mM probenecid, 3 μM of the calcium-sensitive fluorescent dye Fluo-4 AM, and 0.01% pluronic acid for 30 min at 37 °C. After that time, the loading solution was aspirated and 100 μL/well of HBSS supplemented with 20 mM HEPES, 2.5 mM probenecid, and 500 μM brilliant black was added. Serial dilutions were carried out in HBSS/HEPES (20 mM) buffer (containing 0.02% BSA fraction V). After placing both plates (cell culture and master plate) into the fluorometric imaging plate reader FlexStation II (Molecular Devices, Sunnyvale, CA), fluorescence changes were measured. On-line additions were carried out in a volume of 50 μL/well. To facilitate drug diffusion into the wells, the present studies were performed at 37 °C. Maximum change in fluorescence, expressed as percent over the baseline fluorescence, was used to determine agonist response.
Test [5] deals with NOP, mu, kappa, delta receptors. Particulars: functional studies with human recombinant receptors; cited from earlier work. An excerpt: Finally, the effects of [Dmt^1,5]N/OFQ(1-13)-NH2 at kappa and delta opioid receptors were investigated. […] Of note, the kappa potency of [Dmt^1,5]N/OFQ(1-13)-NH2 was similar to that shown at NOP and mu receptors. […] Moreover, similar results have b ...

T2 sequence (P35372 whole entry): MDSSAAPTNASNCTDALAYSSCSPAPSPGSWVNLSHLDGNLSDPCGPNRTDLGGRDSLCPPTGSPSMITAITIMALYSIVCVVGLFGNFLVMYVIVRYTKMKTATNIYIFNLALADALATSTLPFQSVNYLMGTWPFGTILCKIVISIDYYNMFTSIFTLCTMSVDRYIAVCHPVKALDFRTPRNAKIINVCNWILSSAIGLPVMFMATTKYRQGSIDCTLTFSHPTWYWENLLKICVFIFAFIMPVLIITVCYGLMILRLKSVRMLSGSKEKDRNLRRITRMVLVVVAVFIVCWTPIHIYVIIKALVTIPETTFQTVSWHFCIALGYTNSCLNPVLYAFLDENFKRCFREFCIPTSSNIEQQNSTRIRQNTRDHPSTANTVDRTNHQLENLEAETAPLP
T1 sequence (P41146 whole entry): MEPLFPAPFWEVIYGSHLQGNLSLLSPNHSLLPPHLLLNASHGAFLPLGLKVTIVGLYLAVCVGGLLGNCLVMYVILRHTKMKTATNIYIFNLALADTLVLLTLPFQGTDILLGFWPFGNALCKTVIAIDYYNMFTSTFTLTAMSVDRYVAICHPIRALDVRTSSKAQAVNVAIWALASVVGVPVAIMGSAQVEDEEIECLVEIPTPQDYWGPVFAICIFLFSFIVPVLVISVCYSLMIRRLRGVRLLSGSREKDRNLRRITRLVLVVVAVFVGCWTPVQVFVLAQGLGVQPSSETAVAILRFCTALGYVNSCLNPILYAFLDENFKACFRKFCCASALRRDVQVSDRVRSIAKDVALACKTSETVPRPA

Consider `C[C@@H](NC(=O)[C@@H](N)Cc1ccc(O)cc1)C(=O)N[C@@H](Cc1ccccc1)C(=O)NCC(=O)N[C@@H](Cc1ccc(O)cc1)C(=O)N1CCC[C@H]1C(=O)N[C@@H](CO)C(N)=O` [Compound 2, dermorphin, reference compound], for which the “NOP pEC50 (CL95%)” value at human NOP receptor [1] (Table 1 series, FlexStation II) is “inactive”; on human NOP receptor [1] (Table 2 series) it was “inactive”; at human NOP receptor [1] (Table 3 series) it was “inactive”; on human NOP receptor [2] (CHO cells expressing human NOP, label-free EnSight reader, 60 min, 37 °C, mean of at least three experiments in duplicate, CL95% in brackets), “inactive”. In addition, the “NOP Emax ± S.E.M.” value on human NOP receptor [1] (Table 1 series, maximum change in fluorescence as percent over the baseline fluorescence) is “inactive”; at human NOP receptor [1] (Table 2 series, percent over the baseline fluorescence), “inactive”; on human NOP receptor [1] (Table 3 series, percent over the baseline fluorescence), “inactive”; at human NOP receptor [2] (maximum picometer (pm) modification (peak), mean ± SEM of at least three experiments in duplicate) it was “inactive”. For the same compound, the pEC50_NOP result on human NOP receptor [1] (molecular formula strings CSV, repeats calcium mobilization values of Tables 1-3) is “inactive”. The “mu Emax ± S.E.M.” value on human mu receptor [3] is on record as 151 ± 16. In addition, the Emax on human mu receptor [4] (read-out: mu Emax ± S.E.M, Table 1 series) came out at 380 ± 15%; on human mu receptor [4] (read-out: mu Emax ± S.E.M., Table 2 series) it was 306 ± 23%; on human mu receptor [4] (read-out: mu Emax ± S.E.M., Table 3 series) it was 359 ± 18%.
Take [Dmt^1]N/OFQ(1-13)-NH2: the “rank order of potency” value in test [5] is “NOP = mu > kappa > delta”.

These data come from paper PMC8279409, “Novel Mixed NOP/Opioid Receptor Peptide Agonists” (Journal of Medicinal Chemistry, 2021).
